This assay has as its system B16F10.A24/SART2^93-101 cells. Briefly: Lung metastatic model: intravenous transplantation of B16F10.A24/SART2^93-101 cells, count of metastatic pulmonary nodules. The class given is in vivo, mouse. The conditions noted are these: B2m^tm2(HLA-A24/H-2Db/B2M)Tai mice; emulsion with Montanide ISA 51 VG subcutaneously on Day 1, Day 8, Day 15; lungs resected Day 28; compared with control group, p=0.0014, Student's t-test. As to the method:
Eleven-week-old B2m^tm2(HLA-A24/H-2Db/B2M)Tai mice (J. Immunol.: 198, 516-527, 2017) were randomly divided into groups each consisting of 10 mice. The day of grouping was designated Day 0.
The B16F10.A24/SART2^93-101 cells (PLoS One: 13, e0199249, 2018) were cultured using the Dulbecco's Modified Eagle's Medium (Sigma-Aldrich) containing 10% FBS. The B16F10.A24/SART2^93-101 cells were subjected to subculture in an incubator at 37° C. in the presence of 5% CO2 two times a week at a ratio of 1:25 to 1:40.
On the day of grouping of mice (Day 0), the B16F10.A24/SART2^93-101 cell suspension prepared using D-PBS (FUJIFILM Wako Pure Chemical Corporation) was transplanted into the tail veins of mice at 1×10^6 cells/0.1 ml.
The mouse models are found to undergo recurrence of tumor cells transplanted into the blood in the lung. Accordingly, such mouse models can be regarded as simulating the recurrence mechanism caused by cancer metastasis in humans. By verifying the effects in such models, accordingly, the inhibitory effects on tumor metastasis and recurrence can be verified. […]
The lungs were resected 28 days after transplantation of the B16F10.A24/SART2^93-101 cells (Day 28), and the number of metastatic pulmonary nodules was visually counted.

The source of these data is patent US20230055953A1, “AGENT FOR ADJUVANT THERAPY” (TAIHO PHARMACEUTICAL CO., LTD., priority 2019, published 2023).

As for “PEP5-RR-PEP9-RR-PEP6-RR-PEP4 (DYSARWNEIRRQIRPIFSNRRRVYDYNCHVDLRRLLQAEAPRL) [TPV06]”, the “number of metastatic pulmonary nodules” value was “significantly reduced”.
